Values after ≈ are worked out from the molar mass of the structure shown. Read-outs that look alike come from different tables or passages of the source.
Key:
[1] = system: HepG2 cells; assay: MTT experiment; conditions: MTT assay
[2] = system: CR-HvKP 1; conditions: for Viability (%): CR-HvKP 1 infected ICR mice; for mortality rate of mice: oral gavage every 12 hours
Method: The ICR mice were injected with 3×10^7 CFU of CR-HvKP 1 intraperitoneally to create sepsis infection models.

[3] = system: E. coli ATCC25922; assay: MIC determination according to CLSI guidelines; assay type: cell-based; conditions: Escherichia coli, drug alone
Method: (§1) Bacterial strains grown on MH agar plates were resuspended in sterilized 0.85% sodium chloride solution. […] All tested culture media were finally cultured at 37° C. for 16 hours. E. coli ATCC25922 and K. pneumoniae MGH78578 in Table 1 were used as reference control bacteria.
(§2) See Table 2 and Table 2-1 below for details.

[4] = system: K. pneumoniae MGH78578; assay: MIC determination according to CLSI guidelines; assay type: cell-based; conditions: Klebsiella pneumoniae, drug alone
Method: as §1, §2

[5] = system: CR-HvKP 1; assay: microbe, parasite or virus in culture; assay type: cell-based, K. pneumoniae; conditions: Klebsiella pneumoniae, read-out: MIC after serial passage with incremental drug concentrations
Method: The principle of this experiment is that sub-inhibitory concentrations of antibiotics will induce drug-resistant mutations of bacteria.
Materials and methods: CR-HvKP 1 was selected as the representative strain. […] After 24 hours of culture, the culture possibly containing drug-resistant mutant bacteria was diluted 1:100 into fresh LB medium containing 2-fold concentration of drugs. This continuous transfer was repeated for six generations, i.e. the experiment was conducted for six days (the concentration on the second day was twice that on the first day, with daily increment).

[6] = system: 15WZ-68; assay: MIC determination according to CLSI guidelines; assay type: cell-based, K. pneumoniae; conditions: Klebsiella pneumoniae, drug alone
Method: as §1, §2

[7] = system: 17ZR-61; assay: MIC determination according to CLSI guidelines; assay type: cell-based, K. pneumoniae; conditions: Klebsiella pneumoniae, drug alone
Method: as §1, §2

[8] = system: 17ZR-75; assay: MIC determination according to CLSI guidelines; assay type: cell-based, K. pneumoniae; conditions: Klebsiella pneumoniae, drug alone
Method: as §1, §2

[9] = system: 14WZ-44; assay: MIC determination according to CLSI guidelines; assay type: cell-based, K. pneumoniae; conditions: Klebsiella pneumoniae; 14WZ-44 (CRKP); drug alone
Method: as §1, §2

[10] = system: 16ZR-33; assay: MIC determination according to CLSI guidelines; assay type: cell-based, K. pneumoniae; conditions: Klebsiella pneumoniae, drug alone
Method: as §1, §2

[11] = system: 15WZ-88; assay: MIC determination according to CLSI guidelines; assay type: cell-based, K. pneumoniae; conditions: Klebsiella pneumoniae, drug alone
Method: as §1, §2

[12] = system: 16ZR-10; assay: MIC determination according to CLSI guidelines; assay type: cell-based, K. pneumoniae; conditions: Klebsiella pneumoniae, drug alone
Method: as §1, §2

[13] = system: CR-HvKP 5; assay: MIC determination according to CLSI guidelines; assay type: cell-based, K. pneumoniae; conditions: Klebsiella pneumoniae, drug alone
Method: as §1, §2

[14] = system: 14WZ-51; assay: MIC determination according to CLSI guidelines; assay type: cell-based, K. pneumoniae; conditions: Klebsiella pneumoniae, drug alone
Method: as §1, §2

[15] = system: CR-HvKP 2; assay: MIC determination according to CLSI guidelines; assay type: cell-based, K. pneumoniae; conditions: Klebsiella pneumoniae, drug alone
Method: as §1, §2

[16] = system: 16ZR-93; assay: MIC determination according to CLSI guidelines; assay type: cell-based, K. pneumoniae; conditions: Klebsiella pneumoniae, drug alone
Method: as §1, §2

[17] = system: 14WZ-43; assay: MIC determination according to CLSI guidelines; assay type: cell-based, K. pneumoniae; conditions: Klebsiella pneumoniae, drug alone
Method: as §1, §2

[18] = system: CR-HvKP 3; assay: MIC determination according to CLSI guidelines; assay type: cell-based, K. pneumoniae; conditions: Klebsiella pneumoniae, drug alone
Method: as §1, §2

[19] = system: 14WZ-45; assay: MIC determination according to CLSI guidelines; assay type: cell-based, K. pneumoniae; conditions: Klebsiella pneumoniae, drug alone
Method: as §1, §2

[20] = system: CR-HvKP 1; assay: MIC determination according to CLSI guidelines; assay type: cell-based, K. pneumoniae; conditions: Klebsiella pneumoniae, drug alone
Method: as §1, §2

[21] = system: 17ZR-31; assay: MIC determination according to CLSI guidelines; assay type: cell-based, K. pneumoniae; conditions: Klebsiella pneumoniae, drug alone
Method: as §1, §2

[22] = system: 14WZ-52; assay: MIC determination according to CLSI guidelines; assay type: cell-based, K. pneumoniae; conditions: Klebsiella pneumoniae, drug alone
Method: as §1, §2

[23] = system: 16WZ-134; assay: MIC determination according to CLSI guidelines; assay type: cell-based, K. pneumoniae; conditions: Klebsiella pneumoniae, drug alone
Method: as §1, §2

[24] = system: 16ZR-58; assay: MIC determination according to CLSI guidelines; assay type: cell-based, K. pneumoniae; conditions: Klebsiella pneumoniae, drug alone
Method: as §1, §2

[25] = system: 17ZR-63; assay: MIC determination according to CLSI guidelines; assay type: cell-based, K. pneumoniae; conditions: Klebsiella pneumoniae, drug alone
Method: as §1, §2

[26] = system: red blood cells (RBCs)
Method: In-vitro method: Hemolysis experiment: The blood from fresh ICR mice was collected by cardiac blood withdrawal, preserved in K2-EDTA tubes (BD Vacultainer® K2 EDTA, Becton-Dickinson) and temporarily stored at 4° C. The whole blood sample was centrifuged (500 g, 10 minutes) to remove plasma, and then washed three times with PBS buffer. After the last washing, 100 μL of the remaining red blood cells (RBCs) were carefully aspirated from the bottom and diluted with 4.9 mL PBS buffer to prepare a 2% blood solution. […] 50 μL of diluted RBCs were mixed with 100 μL of milli-Q H20 (100% hemolysis) or 100 μL of drug-free PBS as positive and negative controls, respectively. It should be noted that rifampicin itself was red, so the absorbance of PBS with different concentrations of the drug was used as background correction in the calculation. The mixture was mixed gently and incubated at 37° C. for 30 minutes. 80 μL of supernatant was obtained by centrifugation at 2000×g for 6 minutes, and the optical density of the supernatant at 541 nm was measured with a microplate reader (SpectraMax 190, Moleclar Devices).

[27] = system: rmpA2; assay: Virulence gene expression by qRT-PCR; assay type: cell-based, K. pneumoniae; conditions: drug alone
[28] = system: CR-HvKP 1; assay: Mucoviscosity assay; assay type: cell-based, K. pneumoniae; conditions: drug alone, OD600 of supernatant
Method: 2. Mucoviscosity assay: The overnight culture of CR-HvKP 1 was re-inoculated into fresh LB broth to produce a bacterial broth with an OD600 of 0.3. Different drugs were then added and cultured with shaking at 37° C. for 6 hours. The culture was then diluted to an OD600 of 1.0 and centrifuged at 1,000×g for 2 minutes before the supernatant was obtained for OD600 measurement.

[29] = system: P. aeruginosa; assay: Screening of FDA-approved drug library; assay type: cell-based; conditions: drug library screen
[30] = system: E. coli; assay: Screening of FDA-approved drug library; assay type: cell-based; conditions: drug library screen
[31] = target: T1, K. pneumoniae RNA polymerase (Klebsiella pneumoniae subsp. pneumoniae, UniProt A6TGP0+A6TGP1); assay: ITC assay; assay type: binding; conditions: 25° C.
T1 construct: made in house; host or cells: E. coli BL21(DE3)
T1 sequence (A6TGP1 whole entry): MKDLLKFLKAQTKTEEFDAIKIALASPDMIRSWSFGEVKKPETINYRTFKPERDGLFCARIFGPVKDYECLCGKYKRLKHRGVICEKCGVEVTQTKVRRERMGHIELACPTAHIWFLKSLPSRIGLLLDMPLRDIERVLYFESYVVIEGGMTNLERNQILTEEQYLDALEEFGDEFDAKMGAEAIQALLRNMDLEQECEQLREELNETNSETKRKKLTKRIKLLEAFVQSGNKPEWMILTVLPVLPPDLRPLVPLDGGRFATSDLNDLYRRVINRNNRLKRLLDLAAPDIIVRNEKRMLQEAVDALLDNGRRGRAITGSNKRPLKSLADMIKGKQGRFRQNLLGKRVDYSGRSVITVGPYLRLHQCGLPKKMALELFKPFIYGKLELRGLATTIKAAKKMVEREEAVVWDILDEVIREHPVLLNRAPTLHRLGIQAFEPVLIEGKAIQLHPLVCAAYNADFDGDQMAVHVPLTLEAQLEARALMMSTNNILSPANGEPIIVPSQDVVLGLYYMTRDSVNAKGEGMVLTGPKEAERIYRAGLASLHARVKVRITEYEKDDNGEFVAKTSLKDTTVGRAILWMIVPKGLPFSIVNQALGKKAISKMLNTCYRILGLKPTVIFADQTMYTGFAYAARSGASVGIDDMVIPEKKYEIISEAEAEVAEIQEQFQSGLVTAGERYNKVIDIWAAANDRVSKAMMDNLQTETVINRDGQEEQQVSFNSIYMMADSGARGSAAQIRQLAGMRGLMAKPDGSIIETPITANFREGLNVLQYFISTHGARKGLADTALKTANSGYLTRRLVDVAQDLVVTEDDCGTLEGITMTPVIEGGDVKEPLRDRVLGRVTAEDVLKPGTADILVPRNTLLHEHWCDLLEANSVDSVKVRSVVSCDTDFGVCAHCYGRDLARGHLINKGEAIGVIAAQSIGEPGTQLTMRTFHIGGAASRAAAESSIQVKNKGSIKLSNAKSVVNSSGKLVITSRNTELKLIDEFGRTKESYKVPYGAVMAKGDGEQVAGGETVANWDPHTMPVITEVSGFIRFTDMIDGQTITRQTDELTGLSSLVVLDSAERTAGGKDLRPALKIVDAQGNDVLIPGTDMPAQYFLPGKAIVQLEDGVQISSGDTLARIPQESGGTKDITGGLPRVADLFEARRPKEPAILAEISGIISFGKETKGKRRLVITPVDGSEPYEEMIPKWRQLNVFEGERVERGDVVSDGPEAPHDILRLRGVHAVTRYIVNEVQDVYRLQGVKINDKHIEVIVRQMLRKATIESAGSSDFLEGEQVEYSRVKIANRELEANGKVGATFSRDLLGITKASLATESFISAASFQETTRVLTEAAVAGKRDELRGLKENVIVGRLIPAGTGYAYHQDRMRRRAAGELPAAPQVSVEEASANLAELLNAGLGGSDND
T1 sequence (A6TGP0 whole entry): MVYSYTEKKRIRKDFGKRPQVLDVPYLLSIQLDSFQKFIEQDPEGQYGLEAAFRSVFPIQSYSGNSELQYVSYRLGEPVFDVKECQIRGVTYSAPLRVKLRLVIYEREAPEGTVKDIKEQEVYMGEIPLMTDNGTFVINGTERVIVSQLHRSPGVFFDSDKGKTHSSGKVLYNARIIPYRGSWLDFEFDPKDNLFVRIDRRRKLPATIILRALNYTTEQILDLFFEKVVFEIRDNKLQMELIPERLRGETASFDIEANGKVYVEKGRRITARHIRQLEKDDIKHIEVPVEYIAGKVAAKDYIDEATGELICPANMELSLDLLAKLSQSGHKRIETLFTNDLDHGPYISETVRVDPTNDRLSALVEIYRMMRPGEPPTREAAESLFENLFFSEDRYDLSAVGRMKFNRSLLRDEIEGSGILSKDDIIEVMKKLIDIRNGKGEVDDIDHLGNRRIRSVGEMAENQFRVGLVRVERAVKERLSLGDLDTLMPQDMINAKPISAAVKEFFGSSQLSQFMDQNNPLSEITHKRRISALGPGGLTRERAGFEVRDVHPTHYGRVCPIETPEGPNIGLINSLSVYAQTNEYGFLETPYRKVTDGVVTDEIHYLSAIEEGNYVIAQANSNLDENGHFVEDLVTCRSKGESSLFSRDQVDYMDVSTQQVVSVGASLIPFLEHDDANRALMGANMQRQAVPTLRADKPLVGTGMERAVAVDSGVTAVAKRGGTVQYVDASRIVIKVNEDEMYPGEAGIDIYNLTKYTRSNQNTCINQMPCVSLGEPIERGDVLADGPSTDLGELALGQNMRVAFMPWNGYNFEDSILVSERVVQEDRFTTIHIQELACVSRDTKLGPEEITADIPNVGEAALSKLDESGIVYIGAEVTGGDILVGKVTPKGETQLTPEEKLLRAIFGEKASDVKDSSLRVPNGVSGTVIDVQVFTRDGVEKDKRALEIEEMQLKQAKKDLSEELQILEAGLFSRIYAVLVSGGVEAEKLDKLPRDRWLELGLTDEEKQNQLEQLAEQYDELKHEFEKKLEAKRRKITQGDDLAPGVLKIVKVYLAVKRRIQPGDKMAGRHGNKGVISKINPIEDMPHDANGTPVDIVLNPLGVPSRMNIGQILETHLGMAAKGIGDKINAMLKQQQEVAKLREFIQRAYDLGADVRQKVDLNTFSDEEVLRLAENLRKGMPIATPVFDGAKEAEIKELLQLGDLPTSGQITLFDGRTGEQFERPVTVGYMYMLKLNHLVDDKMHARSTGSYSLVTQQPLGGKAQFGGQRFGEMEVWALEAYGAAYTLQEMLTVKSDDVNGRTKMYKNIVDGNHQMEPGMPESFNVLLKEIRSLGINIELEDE
T1 sequence (A6TEU8 whole entry, further chain): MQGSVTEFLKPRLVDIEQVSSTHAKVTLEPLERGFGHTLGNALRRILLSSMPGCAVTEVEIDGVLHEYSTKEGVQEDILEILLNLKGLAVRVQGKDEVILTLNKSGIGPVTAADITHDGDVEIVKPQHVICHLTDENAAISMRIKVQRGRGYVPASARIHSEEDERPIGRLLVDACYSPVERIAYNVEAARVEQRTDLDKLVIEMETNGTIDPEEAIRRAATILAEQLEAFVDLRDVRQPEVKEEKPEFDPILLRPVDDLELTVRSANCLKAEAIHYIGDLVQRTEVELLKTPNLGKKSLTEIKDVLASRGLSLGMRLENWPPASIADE
From the text: We successfully co-expressed the subunits of K. pneumoniae RNAp to prepare the required core enzyme by a dual plasmids expression system, pACYC-Duet and pET-Duet. The method is briefly described as follows:
Recombinant plasmids containing different subunits of RNAP (rpoA, rpoB, rpoC, rpoD, rpoZ) were constructed using the Gibson assembly method. First, all the required fragments were obtained by PCR amplification from the K. pneumoniae MGH78578 genome and two Duet plasmids, respectively. All fragments, Gibson Assembly Master Mix (NEB, #E2611S) and deionized water were then mixed and incubated at 50° C. for 60 minutes. The recombinant plasmids were transformed into E. coli DH5α by heat shock method. After verification via sequencing, the recombinant plasmids were then transformed into E. coli BL21(DE3). Plasmids pACYC Duet rpoA-rpoZ-Amp (encoding […]) and pET Duet rpoB-rpoC-Kana (encoding β and β′ subunits) were transformed together into E. coli BL21 to prepare RNA core polymerase by in vivo assembly. The σ factor σ subunit was obtained by overexpression of E. coli BL21 containing the plasmid pET-Duet-rpoD-Kana alone. The recombinant bacteria were first cultured in LB agar containing 50 μg/mL of kanamycin and 100 μg/mL of ampicillin and then inoculated into LB broth containing the same concentration of antibiotics at 37° C., 250 rpm. After the bacterial turbidity reached an OD600 of 0.6, 0.5 mM IPTG was added and cultured at 16° C., 200 rpm for 16 hours. Cells were harvested by centrifugation (5000 rpm, 20 minutes at 4° C.). The protein was then purified by affinity chromatography. To further obtain bacterial RNAp holoenzyme, RNAp core enzyme was incubated with sigma subunits at a molar ratio of 1:1 at 37° C. for 15 minutes and then used for subsequent ITC assays.
The test was performed at 25° C. using a Malvern MicroCal PEAQ-ITC automatic ultrasensitive isothermal titration calorimeter (MicroCal (Malvern Instruments), Malvern, UK). […] The solution was stirred at 750 rpm. MicroCal PEAQ-ITC analysis software was used to fit the data to a one site binding model.

[32] = system: CR-HvKP 1; conditions: 20 μg/mL zidovudine
[33] = system: CR-HvKP 1; assay: String test on sheep blood agar; assay type: cell-based, K. pneumoniae; conditions: drug alone
Method: 1. A series of tests were performed according to the following process. CR-HvKP 1 was inoculated onto the agar plate containing 5% sheep blood and different drugs and cultured overnight at 37° C. The series test refers to a test in which viscous strings greater than 5 mm in length are formed when a single colony is stretched with a standard bacteriological inoculating loop, which can be considered a virulent strain of a high-viscosity phenotype.

[34] = system: K. pneumoniae; assay: Screening of FDA-approved drug library; assay type: cell-based; conditions: drug library screen

| SMILES | HepG2 cell lysis [1] | MIC [3] | MIC [4] | MIC [5] | MIC [6] | MIC [7] | MIC [8] | MIC [9] | MIC [10] | MIC [11] | MIC [12] | MIC [13] | MIC [14] | MIC [15] | MIC [16] | MIC [17] | MIC [18] | MIC [19] | MIC [20] | MIC [21] | also measured |
| --- | --- | --- | --- | --- | --- | --- | --- | --- | --- | --- | --- | --- | --- | --- | --- | --- | --- | --- | --- | --- | --- |
| CO[C@H]1/C=C/O[C@@]2(C)Oc3c(C)c(O)c4c(O)c(c(/C=N/N5CCN(C)CC5)c(O)c4c3C2=O)NC(=O)/C(C)=C\C=C\[C@H](C)[C@H](O)[C@@H](C)[C@@H](O)[C@@H](C)[C@H](OC(C)=O)[C@@H]1C [rifampicin] | low level | 8 µg/mL (≈ 9.72 µM) | 32 µg/mL (≈ 38.9 µM) | 4100 µg/mL (≈ 4980 µM) | 32 µg/mL (≈ 38.9 µM) | 32 µg/mL (≈ 38.9 µM) | 64 µg/mL (≈ 77.8 µM) | 32 µg/mL (≈ 38.9 µM) | 16 µg/mL (≈ 19.4 µM) | 16 µg/mL (≈ 19.4 µM) | 32 µg/mL (≈ 38.9 µM) | 32 µg/mL (≈ 38.9 µM) | 32 µg/mL (≈ 38.9 µM) | 32 µg/mL (≈ 38.9 µM) | > 64 µg/mL | 32 µg/mL (≈ 38.9 µM) | 32 µg/mL (≈ 38.9 µM) | 16 µg/mL (≈ 19.4 µM) | 32 µg/mL (≈ 38.9 µM) | 32 µg/mL (≈ 38.9 µM) | Viability (%) ([2]; ZDV 0 mg/kg + RIF 8 mg/kg): 30%; mortality rate of mice ([2]; rifampicin 8 mg/kg only, in 72 hours): 66%; MIC [22]: 32 µg/mL (≈ 38.9 µM); MIC [23]: 32 µg/mL (≈ 38.9 µM); MIC [24]: 32 µg/mL (≈ 38.9 µM); MIC [25]: 32 µg/mL (≈ 38.9 µM); hemolysis [26]: low level |
| Cc1cn([C@H]2C[C@H](N=[N+]=[N-])[C@@H](CO)O2)c(=O)[nH]c1=O [zidovudine] | low level | 0.625 µg/mL (≈ 2.34 µM) | 5 µg/mL (≈ 18.7 µM) | 1280 µg/mL (≈ 4790 µM) | 2.5 µg/mL (≈ 9.35 µM) | 1.25 µg/mL (≈ 4.68 µM) | 5 µg/mL (≈ 18.7 µM) | 2.5 µg/mL (≈ 9.35 µM) | 5 µg/mL (≈ 18.7 µM) | 2.5 µg/mL (≈ 9.35 µM) | 0.625 µg/mL (≈ 2.34 µM) | 5 µg/mL (≈ 18.7 µM) | 2.5 µg/mL (≈ 9.35 µM) | 2.5 µg/mL (≈ 9.35 µM) | > 20 µg/mL | 2.5 µg/mL (≈ 9.35 µM) | 2.5 µg/mL (≈ 9.35 µM) | 2.5 µg/mL (≈ 9.35 µM) | 2.5 µg/mL (≈ 9.35 µM) | 2.5 µg/mL (≈ 9.35 µM) | expression of bacterial virulence factor rmpA2 [27]: inhibition; hypermucoviscosity [28]: reduce; antibacterial effect [29]: exhibited antibacterial effect; antibacterial effect [30]: exhibited antibacterial effect; enthalpy (ΔH) [31]: -80.1 ± 124 kcal/mol; reaction stoichiometry (N sites) [31]: 0.239±0.273; Kd ([31]; one site binding model): 7.8 µM; Viability (%) ([2]; ZDV 10 mg/kg + RIF 0 mg/kg): 0%; mortality rate of mice ([2]; zidovudine 10 mg/kg only, in 36 hours): 100%; population size of CR-HvKP 1 in time-kill curve [32]: reduced in the first 4 hours and then re-grew to reach the same size as no treatment control at 24 hours; MIC [22]: 1.25 µg/mL (≈ 4.68 µM); MIC [23]: > 20 µg/mL; MIC [24]: 2.5 µg/mL (≈ 9.35 µM); MIC [25]: 1.25 µg/mL (≈ 4.68 µM); string length [33]: reduce; antibacterial effect [34]: exhibited antibacterial effect |
